# Test results reported in patent US3954764A, “Dibenzo [b,f]thiepins bearing piperazinyl substitution” (priority 1973, dated 1976).
# “Also recorded” adds a separate entry of the source. Read-outs that look alike come from different tables or passages of the source.
# Experiments:
# [1] = tested on: homovanillinic acid (turnover of dopamine in the basal ganglions); assay: Determination of Homovanillinic Acid; assay type: in vivo, rat; settings: rats; for Increase in HVA, percent: 2 hours before killing, untreated = 100 percent
# Procedure: Two hours prior to being killed, rats are injected with the test substance.
# Thereafter, the homovanillinic acid is extracted from the supernatant portion of a homogenized mixture of the brains of the treated rats into butyl acetate and later into an aqueous solution and is oxidized with potassium ferric cyanide to a fluorescent dimer. […] The homovanillinic acid titer in untreated rats is arbitrarily set at 100 percent.
# [2] = Catalepsy test (i.p., rats; number of cataleptic animals recorded every 30 minutes over 6 hours); assay type: in vivo, rat; settings: rat, in vivo, ip
# Procedure: (§1) The following compounds were tested:
# (§2) The foregoing compounds were compared to chlorpromazine, a well-known central depressant, especially well known as a neuroleptic agent.
# (§3) The test animals are considered to be cataleptic when the homolateral extremities remain in the crossed position for at least 10 seconds. The number of cataleptic animals is recorded every 30 minutes over a 6-hour period. The ED50 is the dose at which 50 percent of the animals are cataleptic.
# rats [3] = assay: as above; assay type: in vivo, rat
# Procedure: as §1, §2, §3
# "Pole Climbing" Test = assay type: in vivo, rat; settings: rat, in vivo, po; rats, p.o.; higher quotient = greater selectivity of neuroleptic action; read-out: Quotient ED10 (blocking of the unconditioned reaction) / ED50 (blocking of the conditioned reaction)
# Procedure: (§4) This test provides information about behavioral reactions of rats. Rats are trained to avoid, by climbing up a vertical pole in the test chamber, an electrical impulse (unconditioned impulse) released via the wire-latticed floor some seconds after an acoustic signal (conditioned impulse).
# (§5) The blocking of the conditioned reaction is determined by the parameter ED50 (mg/kg p.o.); the blocking of the unconditioned reaction is determined by a parameter ED10 (mg/kg. p.o.).
# (§6) The parameter ED50 (blocking of the conditioned reaction) gives a measure of the neuroleptic strength of action of the test substance. The quotient ED10 (blocking of the unconditioned reaction)/ED50 (blocking of the conditioned reaction) gives a measure of the quality of action of the test substance since, with increasing quotient, a greater selectivity of the neuroleptic action (slighter neurotoxic side-effect) is present.
# rats [4] = assay: "Pole Climbing" Test; assay type: in vivo, rat; settings: for ED50: Rattus norvegicus, po, read-out: ED50 (blocking of the conditioned reaction); for neuroleptic action in words / quality (selectivity) of the neuroleptic action in words: compared with chlorpromazine
# Procedure: as §4, §5, §6
# [5] = Acute toxicity in the mouse; settings: in vivo, po
# mice = assay: Rotating Rod Test; assay type: in vivo, mouse; settings: for ED50: Mus musculus, po, read-out: ED50 (dose which reduces the holding on period by 50 percent); for Rotating Rod Test activity in words: compared with chlorpromazine
# Procedure: In the Rotating Rod Test, the ability of mice to achieve a coordinated motor performance is investigated. After peroral administration of the test substance, the mice are placed upon a horizontal slowly rotating rod and the time they remain on the rod is recorded. The ED50 is that dose which reduces the holding on period of the mice by 50 percent as compared to the holding on period prior to the administration of the test substance.
# [6] = rats, intraperitoneal, 6-hour period, read-out: ED50 (dose at which 50 percent of the animals are cataleptic)
smiles,measurement,setting,value
"CN(C)CCCN1c2ccccc2Sc2ccc(Cl)cc21 [Chlorpromazine, reference compound]","Increase in HVA, percent",[1]; 20 mg/kg p.o.,321%
same,TD50 at 6 h,[2]; [6],6 mg/kg
same,cataleptic activity in words,"rats [3]; rat, in vivo",does demonstrate cataleptic effect
same,selectivity ratio,"""Pole Climbing"" Test",2.5
same,ED50,"rats [4]; rats, p.o.",11.8 mg/kg
same,LD50 at 24 h,[5],200 mg/kg
same,ED50,mice,5 mg/kg
"Cc1ccc2c(c1)CC(N1CCN(CCN3CCCC3=O)CC1)c1cc(Cl)ccc1S2.O=C(O)/C=C\C(=O)O (stereo not drawn) [Product A, 1-{2-[4-(8-chloro-10,11-dihydro-2-methyl-dibenzo[b,f]thiepin-10-yl)-1-piperazinyl]-ethyl}-2-pyrrolidinone maleate]",HVA test activity in words,[1],nearly as potent as that of chlorpromazine
same,"Increase in HVA, percent",[1]; 50 mg/kg p.o.,295%
same,TD50 at 6 h,[2]; [6],> 100 mg/kg
same,cataleptic activity in words,rats [3]; as compared to chlorpromazine,no cataleptic effect
same,LD50 at 24 h,[5],3750 mg/kg
same,ED50,"mice; mice, peroral",7.3 mg/kg
same,Rotating Rod Test activity in words,"mice; mice, peroral, maleate",strong activity; also recorded: approximates that of chlorpromazine
"O=C(O)/C=C\C(=O)O.O=C1OCCN1CCN1CCN(C2Cc3cc(Cl)ccc3Sc3cc(F)ccc32)CC1 (stereo not drawn) [Product B, 3-{2-[4-(2-chloro-7-fluoro-10,11-dihydrodibenzo[b,f]thiepin-10-yl)-1-piperazinyl]-ethyl}-2-oxazolidinone maleate]",HVA test activity in words,[1],nearly as potent as that of chlorpromazine
same,"Increase in HVA, percent",[1]; 50 mg/kg p.o.,270%
same,TD50 at 6 h,[2]; [6],> 100 mg/kg
same,cataleptic activity in words,rats [3]; as compared to chlorpromazine,no cataleptic effect
same,LD50 at 24 h,[5],900 mg/kg
"Cc1ccc2c(c1)CC(N1CCN(CCN3CCOC3=O)CC1)c1cc(F)ccc1S2 (stereo not drawn) [Product C, 3-{2-[4-(8-fluoro-10,11-dihydro-2-methyl-dibenzo[b,f]thiepin-10-yl)-1-piperazinyl]-ethyl}-2-oxazolidinone]","Increase in HVA, percent",[1]; 50 mg/kg p.o.,235%
same,TD50 at 6 h,[2],75 mg/kg
same,cataleptic activity in words,rats [3]; as compared to chlorpromazine,very weak cataleptic activity
same,selectivity ratio,"""Pole Climbing"" Test",23
same,ED50,"rats [4]; rats, p.o.",14 mg/kg
same,neuroleptic action in words,rats [4]; rats,lies somewhat below that of chlorpromazine
same,quality (selectivity) of the neuroleptic action in words,rats [4]; rats,substantially exceeds that of chlorpromazine
same,LD50 at 24 h,[5],1880 mg/kg
same,ED50,"mice; mice, peroral",2.1 mg/kg
same,Rotating Rod Test activity in words,"mice; mice, peroral",strong activity; also recorded: superior to that of chlorpromazine
"O=C(O)/C=C\C(=O)O.O=C1OCCN1CCN1CCN(C2Cc3cc(Cl)ccc3Sc3ccc(F)cc32)CC1 (stereo not drawn) [Product D, 3-{2-[4-(2-chloro-8-fluoro-10,11-dihydrodibenzo[b,f]thiepin-10-yl)-1-piperazinyl]-ethyl}-2-oxazolidinone maleate]",HVA test activity in words,[1],nearly as potent as that of chlorpromazine
same,"Increase in HVA, percent",[1]; 45 mg/kg p.o.,300%
same,TD50 at 6 h,[2]; [6],45 mg/kg
same,cataleptic activity in words,rats [3]; as compared to chlorpromazine,considerably lower cataleptic activity
same,selectivity ratio,"""Pole Climbing"" Test",7.6
same,ED50,rats [4],17 mg/kg
same,neuroleptic action in words,rats [4]; rats,lies somewhat below that of chlorpromazine
same,quality (selectivity) of the neuroleptic action in words,rats [4]; rats,substantially exceeds that of chlorpromazine
same,LD50 at 24 h,[5],450 mg/kg
same,ED50,"mice; mice, peroral",1 mg/kg
same,Rotating Rod Test activity in words,"mice; mice, peroral, maleate",strong activity; also recorded: superior to that of chlorpromazine
"CSc1ccc2c(c1)C(N1CCN(CCN3CCOC3=O)CC1)Cc1cc(C)ccc1S2.O=C(O)/C=C\C(=O)O (stereo not drawn) [Product E, 3-{2-[4-(10,11-dihydro-2-methyl-8-methylthiodibenzo[b,f]thiepin-10-yl)-1-piperazinyl]-ethyl}-2-oxazolidinone maleate]","Increase in HVA, percent",[1]; 50 mg/kg p.o.,255%
same,TD50 at 6 h,[2]; [6],45 mg/kg
same,cataleptic activity in words,rats [3]; as compared to chlorpromazine,considerably lower cataleptic activity
same,selectivity ratio,"""Pole Climbing"" Test",12
same,ED50,rats [4],25 mg/kg
same,neuroleptic action in words,rats [4]; rats,lies somewhat below that of chlorpromazine
same,quality (selectivity) of the neuroleptic action in words,rats [4]; rats,substantially exceeds that of chlorpromazine
same,LD50 at 24 h,[5],3750 mg/kg
